The subject of one test is KI-67 gene. As to the kind of experiment: Real-time PCR, KI-67 gene expression. It counts as cell-based, human. The conditions noted are these: relative to untreated control (1), normalized to GAPDH. As to the method:
(§1) The expression level of the following six genes (Ki-67, Survivin, Interleukin-1 beta (IL-1B), Interleukin-6 (IL-6), Cyclooxygenase-2 (COX-2) and protein kinase B (AKT1)) was determined in MCF7 and HEP2 treated with the IC50 of compound 5c. The untreated cells were used as a negative control for comparison purposes. […] Ki-67 is a popular proliferation marker for human tumor cells. […] Survivin is an inhibitor of apoptotic protein (IAP) family member, which is essential for cell division. The lowering of the expression of survivin inhibited tumor development, triggered apoptosis, and made tumor cells more susceptible to radiation and chemotherapy (Albadari and Li [2023]). […] IL-1B is a pleiotropic mediator of inflammation, which is produced in response to a variety of stressors (Aarreberg et al. [2019]). […] IL-6 is a pro-inflammatory cytokine that plays a significant role in the proliferation and differentiation of human cells. It promotes the production of numerous proteins involved in acute inflammation (Uciechowski and Dempke [2020]). […]
(§2) The expression level of the following six genes (Ki-67, survivin, AKT1, IL-6, COX2, and IL-1B) was examined using real-time polymerase chain reaction (qPCR) (Mohamed et al. [2023a]). […] The cycle threshold (Ct) was determined automatically. […]
For orientation: Real-time PCR tracks product formation cycle by cycle.

A further test has as its system Survivin gene. The test can be described thus: Real-time PCR, Survivin gene expression. It counts as cell-based, human. The conditions noted are these: relative to untreated control (1). As to the method:
as §1, §2

The mark [1] stands for this setting: HEP2 cells treated with IC50 of 5c.
Where [2] appears, read: MCF7 cells treated with IC50 of 5c.

Structures are written as SMILES.

Take `COc1ccc(NC(=O)COc2ccc(C=CC(=O)c3cccs3)cc2)cc1` [Compound 5c, N-(4-Methoxyphenyl)-2-(4-(3-oxo-3-(thiophen-2-yl)prop-1-en-1-yl)phenoxy)acetamide]: the KI67 expression folding in the test on KI-67 gene (setting [1]) is given as 0.648±0.015 fold; in the test on KI-67 gene (setting [2]), 0.352±0.0172 fold. Further, the Survivin expression folding in the test with Survivin gene (setting [1]) turned out to be 0.489±0.07 fold; with Survivin gene (setting [2]), 0.632±0.0618 fold.

Source of the values: paper PMC11582173, “Synthesis, cytotoxicity, anti-inflammatory, anti-metastatic and anti-oxidant activities of novel chalcones incorporating 2-phenoxy-N-arylacetamide and thiophene moieties: induction of apoptosis in MCF7 and HEP2 cells” (Naunyn-Schmiedeberg's Archives of Pharmacology, 2024).
